In PubChem BioAssay (NCI):
Several values for one entry are separate records, joined by “and”; a condition that tells them apart may be missing. Equal entries are not always repeated.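 All cell lines were grown in 96-well plates and treated with compound for 48 hours. At the GI50, growth is halved. TGI is the concentration that stops growth completely.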

Tests used:
Experiment in all cases: growth of human tumour cells (NCI), 48 h
[1] = tested on: HT29 colon
[2] = tested on: SF-295 CNS
[3] = tested on: PC-3 prostate
[4] = tested on: NCI-H460 lung
[5] = tested on: DU-145 prostate
[6] = tested on: NCI/ADR-RES ovarian
[7] = tested on: CAKI-1 renal
[8] = tested on: NCI-H522 lung
[9] = tested on: SW-620 colon
[10] = tested on: HCC-2998 colon

Compound	TGI [1]	TGI [2] [µM]	TGI [3] [µM]	TGI [4] [µM]	TGI [5] [µM]	TGI [6] [µM]	TGI [7] [µM]	TGI [8]	TGI [9] [µM]	TGI [10]	GI50 [2] [µM]	GI50 [7] [µM]	GI50 [1] [µM]	GI50 [10] [µM]	GI50 [3] [µM]	GI50 [4] [µM]	GI50 [5] [µM]	GI50 [6] [µM]	GI50 [8] [µM]	GI50 [9] [µM]
C=CCCCN(C(=O)c1ccccc1)c1ccc(C(=O)OC)o1	> 100 µM	> 100	> 100	> 100	> 100	> 100	> 100	> 100 µM												
Cc1ccc(N=Nc2c(O)ccc3ccccc23)c(C)c1	> 100 µM	> 100	> 100		> 100	> 100	> 100		> 100											
Cc1oc(N)c(S(=O)(=O)/C(C#N)=C/c2ccccc2[N+](=O)[O-])c1C	35.1 µM	> 100	99	> 100	> 100	> 100	53.9	41 µM	63.1	> 100 µM										
CN(C)Cc1cc(/C=C/C(=O)c2ccc(Br)cc2)cc(CN(C)C)c1O	62.4 µM	38.7	> 100	42.6	33.7	> 100	23.8		52	27.8 µM										
COc1ccc(-c2csc3c2[N+]2(C)C=CC=C2C3N2CCCC2)cc1 (stereo not given)	43 µM	54	> 100	46.8		63.7	> 100	19.1 µM	> 100											
C=CCN1C(=O)C[C@H](Cc2ccccc2)NC(=O)C[C@H](Cc2ccccc2)N(CC=C)C(=O)C[C@H](Cc2ccccc2)NC(=O)C[C@@H]1Cc1ccccc1	> 100 µM	> 100	> 100	> 100	> 100	> 100	> 100		> 100											
CC12CC(c3ccccc3O1)C(C(=O)Nc1nccs1)C(=O)N2 (stereo not given)	> 100 µM	> 100	> 100	> 100	> 100	> 100	> 100	> 100 µM	> 100	> 100 µM										
CC(C)(C)N=C1C(=O)C2(C)CCC1C2(C)C (stereo not given)	> 100 µM	> 100	> 100	> 100	> 100	> 100	> 100		> 100	> 100 µM										
Oc1ccc(Nc2nc(Cl)c3[nH]cnc3n2)cc1	> 100 µM	> 100	> 100	> 100	> 100	> 100	> 100	> 100 µM	> 100	> 100 µM										
C[C@]12CC[C@H]3[C@@H](CC=C4C[C@@H](O)CC[C@@]43C)[C@@H]1C/C(=C\c1ccc([N+](=O)[O-])cc1)[C@@H]2O	20.6 µM	46.5	33.5	72.9	23	48.4	36.8	32.7 µM	> 100	30.4 µM										
CCC1OC2(C)CC(C#N)(C#N)C1(C#N)C(=N)O2 (stereo not given)		> 100	> 100		> 100		> 100		> 100											
COC1OC(C)/C(=N/O)C2OC(C)(C)OC12 (stereo not given)	> 100 µM	> 100	> 100	> 100	> 100	> 100	> 100	> 100 µM	> 100	> 100 µM										
Cc1c2cc[n+](C)cc2c(C)c2c1[nH]c1ccc(OCC(F)(F)F)cc12	8.14 µM and > 55.1 µM	2.22					> 64.7	5.64 µM and 4.83 µM	> 100	34.5 µM and > 100 µM										
CCCCn1c(-c2ccccc2)cs/c1=N\NC(=O)Cn1c(C)nc2ccccc21	> 100 µM	> 100		> 100			> 100	> 100 µM	> 100	> 100 µM										
C[C@H](NC(=O)C(C)(Cc1ccc(O)cn1)NC(=O)c1ccccc1)c1ccccc1 (stereo not given in full)	> 100 µM	> 100	> 100		> 100	> 100	> 100	> 100 µM	> 100	> 100 µM										
Clc1cc(Cl)nc(Nc2ccc3c(c2)CCC3)n1	51.5 µM	> 100	> 100	> 100	> 100	> 100	75.7		> 100	30.4 µM										
COc1ccc(-c2c(/C=N/OCC(=O)O)c3sc4ccccc4n3c2/C=N/OCC(=O)O)cc1	> 50 µM	> 50	> 50	> 50	> 50	> 50	> 50	> 50 µM	> 50	> 50 µM										
CSCSCC(CO)NC(=O)/C=C\c1c(C)[nH]c(=O)[nH]c1=O (stereo not given)	270 µM	209		109		296	33.3	8.48 µM	207	52.9 µM	62.1	2.04								
COc1ccc(-c2nc(-c3cnccn3)n(C/C=C/c3ccccc3)n2)cc1	> 100 µM	73.4	> 100	> 100	> 100	> 100		> 100 µM	> 100	> 100 µM										
N/C(=N\N=C/c1c(O)cc(O)cc1O)NO	> 100 µM	> 100		> 100		> 100	> 100	> 100 µM	> 100	> 100 µM										
c1ccc(C2N=C(c3ccccn3)C(c3ccccn3)=NC2c2ccccc2)cc1 (stereo not given)	> 100 µM	> 100		> 100			> 100	> 100 µM	> 100	> 100 µM										
O=C(NCc1cn(Cc2cccc(Oc3ccccc3)c2)nn1)c1cccnc1NCc1ccc(Cl)cc1	7.56 µM		> 100	7.83	> 100	> 100	> 100	5.68 µM	> 100	28.1 µM		4.36	2.96	4.17	2.96	2.85	4	2.86	2.18	4.04
COc1c(NC(C)=O)c2ccccc2c2ccccc12	> 100 µM	> 100	> 100	> 100	> 100	> 100		> 100 µM	> 100											
